# Test results as given in paper PMC8742467, “Therapeutical interference with the epigenetic landscape of germ cell tumors: a comparative drug study and new mechanistical insights” (Clinical Epigenetics, 2022).
# Read-outs that look alike come from different tables or passages of the source.
# Legend:
# [1] = system: fibroblasts (MPAF, HVHF2); assay: XTT cell viability assay, fibroblasts; type: cell-based; settings: Homo sapiens, Fibroblast; after 48 h, mean
# Protocol: (§1) The […] (XTT) assays were performed as described previously. In summary, for GCT and fibroblast cell lines 5 × 10^3 cells (3 × 10^3 for UC, PCa and RCC cell lines) per 96-well were seeded and different drug concentrations (see Additional file 2: Fig. S2, Additional file 3: Fig. S3) or corresponding solvents were added to the cells the following day. For drug details see Additional file 12: Table S2 C. Each condition was analyzed in four technical replicates and EC50 values were calculated by GraphPad Prism v8.
# SE (seminoma) cell lines = assay: XTT cell viability assay, mean per entity SE; type: cell-based; settings: Homo sapiens, after 48 h
# Protocol: as §1
# [2] = system: YST (yolk-sac tumor) cell lines; assay: XTT cell viability assay, mean per entity YST; type: cell-based; settings: Homo sapiens, after 48 h
# Protocol: as §1
# [3] = system: EC-R (cisplatin-resistant embryonal carcinoma subclones); assay: XTT cell viability assay, mean per entity EC-R; type: cell-based; settings: Homo sapiens, after 48 h
# Protocol: as §1
# [4] = system: PRKCB, PRKD1, HDAC9, CSF1R expression in GCT cells; assay: Quantitative RT-PCR of co-treatment target genes; type: cell-based, Human; settings: 0.2 × EC50, 0.5 × EC50 and EC50
# Protocol: Quantitative RT-PCR (qRT-PCR) was performed as described previously. A total amount of 1 µg of RNA was in-vitro transcribed into cDNA by using Oligo(dT)18 Primer and Maxima H Minus Reverse Transcriptase (200 U/µL) (all Thermo Fisher Scientific). qRT-PCR runs were performed on a 384-well C1000 cycler (BioRad, Feldkirchen, Germany). All samples were analyzed in technical triplicates using 7.34 ng of cDNA for each replicate and the SYBR-green-based Luna Universal qPCR Master Mix (New England Biolabs, Frankfurt am Main, Germany). At the end of each run, melting curve analyses were performed. Oligonucleotide sequences are given in the supplement (Additional file 12: Table S2 B).
# [5] = system: DNA methylation (5mC, 5hmC) in 2102EP cells; assay: DNA slot blot (5mC, 5hmC); type: cell-based, Human; settings: 24 h; for 5mC levels compared to solvent control: solvent control set to 100%
# Protocol: Purity of DNA was verified using NanoDrop 260/280 ratio and agarose gel electrophoresis. DNA was diluted in H2O to 200 ng, 100 ng and 50 ng in 200 µl per slot. Slot-Blotter device (Carl Roth GmbH + Co KG, Karlsruhe, Germany) was assembled as according to the manual. DNA was blotted onto a positively charged nylon membrane (Carl Roth GmbH + Co KG, Karlsruhe, Germany) using vacuum application. Three identical membranes were prepared. The membranes were air-dried for 15—20 min and UV-crosslinked (20 s (s), 1200 mJ/cm^2). One membrane was stained with methylene blue (0.02% methylene blue (Merck Millipore, Darmstadt, Germany) in 0.3 M sodium acetate (pH 5.2)) to validate DNA loading across the samples. The remaining two membranes were blocked in 5% milk powder in PBST for 1 h at RT. Membranes were incubated with 5mC or 5hmC antibody overnight at 4 °C. After washing, membranes were incubated with secondary antibody for 2 h at RT. Signals were detected using the ChemiDoc Imaging Systems (Bio-Rad Laboratories, Feldkirchen, Germany).
# [6] = system: CC-R (cisplatin-resistant choriocarcinoma subclones); assay: XTT cell viability assay, mean per entity CC-R; type: cell-based; settings: Homo sapiens, after 48 h
# Protocol: as §1
# [7] = system: phosphorylated kinase targets in 2102EP cells; assay: Proteome Profiler Human Phospho-Kinase Array; type: cell-based; settings: 16 h
# Protocol: For the detection of phosphorylated kinase targets, the Proteome Profiler Human Phospho-Kinase Array Kit (R&D Systems, Abingdon, UK) was used according to the manufacturer’s instructions. The ChemiDoc Imaging System (Bio-Rad Laboratories, Feldkirchen, Germany) was used for detection. 2102EP cells were harvested after 16 h of treatment with the epi-drugs. Pixel density was analyzed using Fiji ImageJ 1.53c.
# 2102EP (EC) = assay: XTT cell viability assay, 2102EP; type: cell-based; settings: Homo sapiens, read-out: EC50 colour/symbol code, EC 2102EP
# Protocol: as §1
# JAR (CC) = assay: XTT cell viability assay, JAR; type: cell-based; settings: Homo sapiens, after 48 h, n = 4, read-out: EC50 colour/symbol code, CC JAR
# Protocol: as §1
# [8] = system: SE-R (cisplatin-resistant seminoma subclone); assay: XTT cell viability assay, mean per entity SE-R; type: cell-based; settings: Homo sapiens, after 48 h
# Protocol: as §1
# TCam-2 (SE) = assay: XTT cell viability assay, TCam-2; type: cell-based; settings: Homo sapiens, read-out: EC50 colour/symbol code, SE TCam-2
# Protocol: as §1
# GCT cell lines = assay: XTT cell viability assay, GCT cell lines (pre-screen / summary); type: cell-based, Human; settings: for EC50 / effective concentration in words: SE and EC proxies TCam-2 and 2102EP
# Procedure, shortened: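 Cells (5 × 10^3 per well) are plated on day 0, then treated on day 1 with graded drug doses or vehicle. XTT conversion gives viability, from which EC50 is derived.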
# Sertoli cells FS1 (SC) = assay: XTT cell viability assay, Sertoli cells; type: cell-based; settings: Homo sapiens; after 48 h
# Protocol: as §1
# [9] = system: transcriptome of 2102EP cells; assay: RNA sequencing; type: cell-based, Human; settings: 16 h; for A1BG Log2 fold change vs. DMSO / A1CF Log2 fold change vs. DMSO / A2M Log2 fold change vs. DMSO: unsorted data
# Procedure, shortened: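 Transcriptome of 2102EP cells sequenced; differential expression between two groups tested with p values FDR-corrected for multiple testing. Solvent-control values averaged across three datasets (GSE189472, GSE190792, GSE190022).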
# [10] = system: EC (embryonal carcinoma) cell lines; assay: XTT cell viability assay, mean per entity EC; type: cell-based; settings: Homo sapiens, after 48 h
# Protocol: as §1
# [11] = Homo sapiens, GCT, cell line not stated, read-out: EC50 concentration used for low dose qRT-PCR
# [12] = sorted data log2>±1.5, FDR p<0.05
EC50 (SE (seminoma) cell lines),EC50 [2],EC50 [8],SMILES,EC50 [1],EC50 [3],5mC levels compared to solvent control [5],EC50 [6],"CREB, STAT3 and STAT5 phosphorylation and total levels of β-Catenin and HSP60 [7]",p53 S15 phosphorylation [7],EC50 (JAR (CC)),EC50 (GCT cell lines; [11]),"EC50 / effective concentration in words (GCT cell lines; first pre-screen, XTT)",EC50 (Sertoli cells FS1 (SC)),A1BG Log2 fold change vs. DMSO [9],A1CF Log2 fold change vs. DMSO [9],A2M Log2 fold change vs. DMSO [9],EC50 [10],5hmC levels increase compared to solvent control [5],ERK1/2 phosphorylation [7],"EC50 (2102EP (EC); after 48 h, XTT, n = 4)",also measured
12100 nM,6180 nM,10100 nM,CCCc1cc(C)[nH]c(=O)c1CNC(=O)c1cc(-c2ccnc(N3CCN(C)CC3)c2)cc2c1cnn2C(C)C [GSK343],9790 nM,9410 nM,52%,9060 nM,decreased,–,1000 to 50000 nM,10700 nM,–,10600 nM,-0.54,-2.01,-0.59,10600 nM,30%,decreased,1000 to 50000 nM,"CSF1R expression (qRT-PCR) [4]: upregulation; HDAC9 expression (qRT-PCR) [4]: upregulation; EC50 (TCam-2 (SE); after 48 h, XTT, n = 4): 1000 to 50000 nM; EC50 (GCT cell lines; Homo sapiens, GCT, first pre-screen, XTT, read-out: EC50): ≤ 50000 nM; CSF1R Log2 fold change vs. DMSO [9, 12]: 3.81; FOSB Log2 fold change vs. DMSO [9, 12]: 3.96; GOLGA6D Log2 fold change vs. DMSO [9, 12]: -4.42; SCNN1B Log2 fold change vs. DMSO [9, 12]: -4.06; TAC1 Log2 fold change vs. DMSO [9, 12]: 3.59; UMODL1 Log2 fold change vs. DMSO [9, 12]: -3.29"
–,–,–,O=C1C(=Cc2cccnc2)C(=O)c2ccccc21 [PRT4165],–,–,84%,–,decreased,–,–,–,–,–,-0.25,0.91,1.71,–,25%,decreased,–,"EC50 (GCT cell lines; first pre-screen, XTT, read-out: EC50): ≤ 50000 nM; BST2 Log2 fold change vs. DMSO [9, 12]: -2.05; EIF3CL Log2 fold change vs. DMSO [9, 12]: -2.52; MMP1 Log2 fold change vs. DMSO [9, 12]: 6.18; MMP10 Log2 fold change vs. DMSO [9, 12]: 6.89; PPFIA4 Log2 fold change vs. DMSO [9, 12]: -2.26; SPANXA1 Log2 fold change vs. DMSO [9, 12]: 5.74"
9.48 nM,6.88 nM,13.2 nM,Cn1cc(CNCC2CCN(c3ncc(C(=O)NO)cn3)CC2)c2ccccc21 [Quisinostat],> 50 nM,7.35 nM,–,10.7 nM,decreased,no alteration,< 1000 nM,1.76 nM,nanomolar range,6.25 nM,1.07,2.77,-0.10,11.6 nM,–,–,< 1000 nM,"PRKCB expression (qRT-PCR) [4]: upregulation; EC50 (TCam-2 (SE); after 48 h, XTT, n = 4): < 1000 nM; EIF3CL Log2 fold change vs. DMSO [9, 12]: -3.69; HBA1 Log2 fold change vs. DMSO [9, 12]: 5.01; IL13RA2 Log2 fold change vs. DMSO [9, 12]: -2.69; LYST Log2 fold change vs. DMSO [9, 12]: -2.73; TSPY4 Log2 fold change vs. DMSO [9, 12]: 5.17; TTC9B Log2 fold change vs. DMSO [9, 12]: 4.98"

SMILES,EC50 (SE (seminoma) cell lines),EC50 [2],EC50 [8],EC50 [1],EC50 [3],5mC levels compared to solvent control [5],EC50 [6],"CREB, STAT3 and STAT5 phosphorylation and total levels of β-Catenin and HSP60 [7]",p53 S15 phosphorylation [7],EC50 (JAR (CC)),EC50 (GCT cell lines; [11]),"EC50 / effective concentration in words (GCT cell lines; first pre-screen, XTT)",EC50 (Sertoli cells FS1 (SC)),A1BG Log2 fold change vs. DMSO [9],A1CF Log2 fold change vs. DMSO [9],A2M Log2 fold change vs. DMSO [9],EC50 [10],5hmC levels increase compared to solvent control [5],ERK1/2 phosphorylation [7],"EC50 (2102EP (EC); after 48 h, XTT, n = 4)",also measured
CN1C(=O)[C@@]23C[C@]4([C@]56C[C@@]78SS[C@@](CO)(C(=O)N7[C@H]5Nc5ccccc56)N(C)C8=O)c5ccccc5N[C@@H]4N2C(=O)[C@]1(CO)SS3 [Chaetocin],122 nM,98.7 nM,218 nM,138 nM,161 nM,85%,233 nM,decreased,increased,< 1000 nM,173 nM,nanomolar range,69.3 nM,0.04,-2.02,1.33,128 nM,–,–,–,"PRKD1 expression (qRT-PCR) [4]: upregulation; EC50 (2102EP (EC); 48 h): < 1000 nM; EC50 (TCam-2 (SE); 48 h): < 1000 nM; ATP1A2 Log2 fold change vs. DMSO [9, 12]: -3.26; CASQ1 Log2 fold change vs. DMSO [9, 12]: -2.99; DLX5 Log2 fold change vs. DMSO [9, 12]: 5.91; DLX6 Log2 fold change vs. DMSO [9, 12]: 5.90; POU2F3 Log2 fold change vs. DMSO [9, 12]: -2.99; SERPINB3 Log2 fold change vs. DMSO [9, 12]: 6.77"
